Experimental data published in ChEMBL document CHEMBL1201862, “PubChem BioAssay data set” (2004).
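Exposure lasted 48 hours, with cells grown in 96-well plates and compounds tested at five concentrations. Here, GI50 denotes the concentration required for 50% inhibition of growth.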 The source made the active and inactive calls. Cut-off read from the data, not from the text of the source: active = GI50 up to about 1.1 µM and inactive = higher.

Experiments:
Experiment in all cases: growth of human tumour cells (NCI), 48 h
[1] = test system: Malme-3M
[2] = test system: SK-OV-3
[3] = test system: TK-10
[4] = test system: MCF7
[5] = test system: HOP-62
[6] = test system: HL-60
[7] = test system: Hs-578T
[8] = test system: MDA-MB-231
[9] = test system: HOP-18
[10] = test system: NCI-H23
[11] = test system: T47D
[12] = test system: UACC-62
[13] = test system: SF-268
[14] = test system: NCI-H226
[15] = test system: PC-3
[16] = test system: HOP-92
[17] = test system: RXF 393
[18] = test system: LOX IMVI
[19] = test system: SN12C
[20] = test system: NCI-H460

For `CC(C)(C)c1nc2c(o1)C(=O)c1ccccc1C2=O`, the GI50 [1] was 574 nM (active), the GI50 [2] was 4980 nM (inactive) and the GI50 [3] was 5650 nM (inactive). For the same compound, the GI50 [4] was 485 nM (active), the GI50 [5] was 3370 nM (inactive) and the GI50 [6] was 718 nM (active). The GI50 [7] was 927 nM (active), the GI50 [8] was 385 nM (active) and the GI50 [9] was 7190 nM (inactive). For the same compound, the GI50 [10] was 373 nM (active), the GI50 [11] was 627 nM (active) and the GI50 [12] was 653 nM (active). For the same compound, the GI50 [13] was 2470 nM (inactive), the GI50 [14] was 3300 nM (inactive) and the GI50 [15] was 505 nM (active). The GI50 [16] was 3050 nM (inactive), the GI50 [17] was 2080 nM (inactive) and the GI50 [18] was 394 nM (active). For the same compound, the GI50 [19] was 959 nM (active) and the GI50 [20] was 3820 nM (inactive).
